Test results: patent US20080176882A1, “SALTS OF 3-(3-AMINO-2-(R)-HYDROXY-PROPYL)-1-(4-FLUORO-PHENYL)-8-(8-METHYL-NAPHTHALEN-1-YLMETHYL)-1,3,8-TRIAZA-SPIRO[4.5]DECAN-4-ONE” (priority 2006, published 2008)
Structures can show the parent of a compound that is named as a salt.

Assay: DVS (Differential Vapor Sorption) measurements of hygroscopicity
Type: physicochemical
Details: salt forms of the compound of formula (Is)
From the text: In an embodiment, the present invention is directed to a hydrochloride salt of the compound of formula (Is). In another embodiment of the present invention, the hydrochloride salt of the compound of formula (Is) is mono-hydrochloride or di-hydrochloride salt of the compound of formula (Is). In another embodiment of the present invention, the mono-hydrochloride and di-hydrochloride salts of the compound of formula (Is) are crystalline. DVS measurements completed on the mono-hydrochloride and di-hydrochloride salts of the compound of formula (Is) indicate that both of these salt forms are hygroscopic.

**Q.** With `Cc1cccc2cccc(CN3CCC4(CC3)C(=O)N(C[C@H](O)CN)CN4c3ccc(F)cc3)c12` [mono-hydrochloride, 3-(3-amino-2-(R)-hydroxy-propyl)-1-(4-fluoro-phenyl)-8-(8-methyl-naphthalen-1-ylmethyl)-1,3,8-triaza-spiro[4.5]decan-4-one] as the compound, how does the “hygroscopicity by DVS measurements” value read?
**A.** The value was “hygroscopic”.
